Measurements taken from PMC4501059, “Responding to the challenge of untreatable gonorrhea: ETX0914, a first-in-class agent with a distinct mechanism-of-action against bacterial Type II topoisomerases” (Scientific Reports, 2015).
≈ marks a conversion by molar mass, not a printed value. Like-named read-outs stand apart in the source and are kept apart here.

What was measured:
Staphylococcus aureus = details: cited from earlier work
mouse lymphoma cells = assay: in vitro mouse micronucleus aberration assay (MMA); format: cell-based
Experimental: (§1) In vitro toxicology. Experiments for assessing micronuclei in mouse lymphoma cells^19 myeloid cytotoxicity^20 and erythroid cytotoxicity^21 were performed as described previously.

Neisseria gonorrhoeae = details: cited from earlier work
Iks/Kv7.1 = Iks/Kv7.1 (Homo sapiens, UniProt P51787); assay: In vitro ion channel function; format: cell-based; details: Iks/Kv7.1 IC50, Slowly activating K^+ delayed rectifier
Iks/Kv7.1, sequence (P51787 whole entry): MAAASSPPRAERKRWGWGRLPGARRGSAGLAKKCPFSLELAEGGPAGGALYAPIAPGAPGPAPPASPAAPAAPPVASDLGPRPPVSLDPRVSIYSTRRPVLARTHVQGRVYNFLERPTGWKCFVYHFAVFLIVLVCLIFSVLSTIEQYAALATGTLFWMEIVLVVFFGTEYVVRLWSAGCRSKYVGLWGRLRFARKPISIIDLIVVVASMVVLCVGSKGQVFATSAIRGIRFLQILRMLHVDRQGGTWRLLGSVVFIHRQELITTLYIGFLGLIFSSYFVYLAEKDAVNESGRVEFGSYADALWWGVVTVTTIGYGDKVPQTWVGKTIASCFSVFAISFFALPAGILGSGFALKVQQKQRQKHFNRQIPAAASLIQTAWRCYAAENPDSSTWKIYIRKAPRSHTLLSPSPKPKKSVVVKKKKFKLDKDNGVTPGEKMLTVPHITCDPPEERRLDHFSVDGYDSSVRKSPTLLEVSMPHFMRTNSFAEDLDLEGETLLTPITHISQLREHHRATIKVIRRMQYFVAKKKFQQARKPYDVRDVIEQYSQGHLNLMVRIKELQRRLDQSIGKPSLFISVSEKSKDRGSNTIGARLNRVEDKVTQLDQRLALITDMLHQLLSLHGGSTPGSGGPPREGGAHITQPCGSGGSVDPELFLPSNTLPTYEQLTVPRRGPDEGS
From the text: (§2) Supplement srep11827-s1.doc, table 3 | column: Table S2: In vitro ion channel function IC50 (µM)

hCav1.2 = hCav1.2 (Homo sapiens, UniProt Q13936); assay: In vitro ion channel function; format: cell-based; details: hCav1.2 IC50, Ca^2+ entry into excitable cells
hCav1.2, sequence (P54289 25-1103): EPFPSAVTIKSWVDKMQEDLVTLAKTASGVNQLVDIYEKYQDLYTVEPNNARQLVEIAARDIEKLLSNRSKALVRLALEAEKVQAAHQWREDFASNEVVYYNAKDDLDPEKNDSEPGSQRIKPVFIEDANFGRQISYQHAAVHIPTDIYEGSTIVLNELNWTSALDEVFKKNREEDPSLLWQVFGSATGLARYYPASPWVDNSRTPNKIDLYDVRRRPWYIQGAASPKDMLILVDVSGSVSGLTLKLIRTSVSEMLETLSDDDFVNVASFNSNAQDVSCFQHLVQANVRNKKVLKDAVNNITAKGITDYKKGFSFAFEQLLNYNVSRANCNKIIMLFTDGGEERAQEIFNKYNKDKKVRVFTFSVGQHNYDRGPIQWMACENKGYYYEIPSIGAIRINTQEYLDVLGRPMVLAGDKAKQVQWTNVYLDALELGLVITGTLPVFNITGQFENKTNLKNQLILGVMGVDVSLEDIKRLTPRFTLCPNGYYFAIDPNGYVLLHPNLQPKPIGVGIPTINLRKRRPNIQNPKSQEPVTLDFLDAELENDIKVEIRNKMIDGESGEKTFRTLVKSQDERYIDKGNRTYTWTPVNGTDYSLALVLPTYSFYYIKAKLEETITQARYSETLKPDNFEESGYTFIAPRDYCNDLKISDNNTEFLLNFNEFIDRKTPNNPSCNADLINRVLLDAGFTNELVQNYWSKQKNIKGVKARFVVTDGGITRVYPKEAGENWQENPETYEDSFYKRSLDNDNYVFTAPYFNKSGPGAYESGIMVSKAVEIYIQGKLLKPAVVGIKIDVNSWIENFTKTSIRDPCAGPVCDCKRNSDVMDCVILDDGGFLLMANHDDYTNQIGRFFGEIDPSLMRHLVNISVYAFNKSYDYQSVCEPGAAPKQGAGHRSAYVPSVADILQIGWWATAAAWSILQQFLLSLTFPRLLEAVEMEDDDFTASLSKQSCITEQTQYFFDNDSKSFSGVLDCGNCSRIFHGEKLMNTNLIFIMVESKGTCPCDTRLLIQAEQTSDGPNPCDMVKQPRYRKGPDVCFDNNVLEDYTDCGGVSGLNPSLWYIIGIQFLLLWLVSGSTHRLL
hCav1.2, sequence (Q13936 whole entry): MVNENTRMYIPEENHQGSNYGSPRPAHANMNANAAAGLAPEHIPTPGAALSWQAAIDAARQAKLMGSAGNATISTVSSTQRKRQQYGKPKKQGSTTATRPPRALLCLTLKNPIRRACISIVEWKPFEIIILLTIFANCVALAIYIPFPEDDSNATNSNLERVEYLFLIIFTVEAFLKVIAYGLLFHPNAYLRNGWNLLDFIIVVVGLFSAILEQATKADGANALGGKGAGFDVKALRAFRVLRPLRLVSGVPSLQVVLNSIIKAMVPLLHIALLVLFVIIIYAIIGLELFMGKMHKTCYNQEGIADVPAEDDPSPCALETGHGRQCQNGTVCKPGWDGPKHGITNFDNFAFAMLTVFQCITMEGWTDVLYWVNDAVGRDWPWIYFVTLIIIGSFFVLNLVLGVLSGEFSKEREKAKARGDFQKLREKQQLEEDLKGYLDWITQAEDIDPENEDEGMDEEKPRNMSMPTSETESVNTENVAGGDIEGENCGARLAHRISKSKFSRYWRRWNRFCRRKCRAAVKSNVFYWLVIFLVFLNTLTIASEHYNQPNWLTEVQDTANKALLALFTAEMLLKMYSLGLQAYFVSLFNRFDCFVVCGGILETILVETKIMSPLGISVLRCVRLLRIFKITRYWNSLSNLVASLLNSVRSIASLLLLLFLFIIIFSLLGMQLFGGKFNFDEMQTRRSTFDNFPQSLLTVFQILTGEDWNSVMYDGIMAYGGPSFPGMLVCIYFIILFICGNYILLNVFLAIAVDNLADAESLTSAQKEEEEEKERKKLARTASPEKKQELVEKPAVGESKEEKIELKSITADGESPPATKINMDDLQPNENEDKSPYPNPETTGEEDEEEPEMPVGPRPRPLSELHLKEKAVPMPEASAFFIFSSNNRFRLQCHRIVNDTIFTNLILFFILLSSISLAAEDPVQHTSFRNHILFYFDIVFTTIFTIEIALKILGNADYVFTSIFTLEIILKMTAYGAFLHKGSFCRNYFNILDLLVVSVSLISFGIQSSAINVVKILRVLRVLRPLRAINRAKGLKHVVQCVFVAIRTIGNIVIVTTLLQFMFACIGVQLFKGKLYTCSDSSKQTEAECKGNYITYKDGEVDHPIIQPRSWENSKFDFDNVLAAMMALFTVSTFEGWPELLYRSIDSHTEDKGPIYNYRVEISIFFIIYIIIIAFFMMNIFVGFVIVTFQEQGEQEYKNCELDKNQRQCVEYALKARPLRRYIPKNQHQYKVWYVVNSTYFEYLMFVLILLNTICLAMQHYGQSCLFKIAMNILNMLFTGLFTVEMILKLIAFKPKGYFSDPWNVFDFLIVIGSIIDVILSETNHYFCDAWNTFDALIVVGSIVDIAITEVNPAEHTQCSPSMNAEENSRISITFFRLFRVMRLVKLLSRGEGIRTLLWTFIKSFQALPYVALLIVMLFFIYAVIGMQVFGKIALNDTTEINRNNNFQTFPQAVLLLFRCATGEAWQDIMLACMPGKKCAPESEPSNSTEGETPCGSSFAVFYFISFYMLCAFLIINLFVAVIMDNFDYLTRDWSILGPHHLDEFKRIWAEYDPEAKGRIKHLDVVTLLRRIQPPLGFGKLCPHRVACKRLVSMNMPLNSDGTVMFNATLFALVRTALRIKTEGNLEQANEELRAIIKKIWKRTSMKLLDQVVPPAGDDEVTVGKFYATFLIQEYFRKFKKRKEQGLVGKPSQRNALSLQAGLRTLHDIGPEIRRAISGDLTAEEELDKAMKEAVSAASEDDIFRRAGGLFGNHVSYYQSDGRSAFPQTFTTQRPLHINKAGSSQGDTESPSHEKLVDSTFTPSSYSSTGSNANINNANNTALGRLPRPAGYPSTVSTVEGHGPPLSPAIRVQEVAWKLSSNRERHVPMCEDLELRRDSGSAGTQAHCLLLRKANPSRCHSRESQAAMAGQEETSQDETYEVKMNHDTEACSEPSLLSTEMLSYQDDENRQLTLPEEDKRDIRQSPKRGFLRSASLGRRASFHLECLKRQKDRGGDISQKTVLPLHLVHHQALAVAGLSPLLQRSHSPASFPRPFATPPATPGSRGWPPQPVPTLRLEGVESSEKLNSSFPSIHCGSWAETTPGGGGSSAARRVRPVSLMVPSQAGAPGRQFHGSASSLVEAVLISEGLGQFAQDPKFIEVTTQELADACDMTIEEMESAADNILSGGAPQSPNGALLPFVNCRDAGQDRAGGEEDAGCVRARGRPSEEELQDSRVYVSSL
hCav1.2, sequence (Q08289 whole entry, further chain): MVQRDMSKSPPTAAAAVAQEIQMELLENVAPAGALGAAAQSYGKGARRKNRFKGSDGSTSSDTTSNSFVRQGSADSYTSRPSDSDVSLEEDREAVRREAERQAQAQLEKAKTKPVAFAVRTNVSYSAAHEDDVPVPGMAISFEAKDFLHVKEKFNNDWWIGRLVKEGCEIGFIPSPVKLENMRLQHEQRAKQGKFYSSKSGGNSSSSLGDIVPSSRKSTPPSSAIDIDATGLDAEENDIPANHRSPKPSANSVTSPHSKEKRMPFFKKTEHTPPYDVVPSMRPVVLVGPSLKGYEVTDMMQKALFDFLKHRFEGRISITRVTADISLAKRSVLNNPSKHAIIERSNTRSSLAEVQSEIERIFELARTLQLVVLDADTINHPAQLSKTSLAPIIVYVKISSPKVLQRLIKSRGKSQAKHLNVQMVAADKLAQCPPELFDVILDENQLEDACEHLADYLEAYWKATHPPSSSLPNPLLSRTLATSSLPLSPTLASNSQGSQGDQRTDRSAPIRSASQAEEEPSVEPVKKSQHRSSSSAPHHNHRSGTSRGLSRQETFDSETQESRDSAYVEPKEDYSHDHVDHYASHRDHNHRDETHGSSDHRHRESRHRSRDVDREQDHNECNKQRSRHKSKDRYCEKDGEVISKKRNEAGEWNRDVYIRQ
From the text: as §2

Ito/Kv4.3 = biological target: T1, Ito/Kv4.3 (Homo sapiens, UniProt Q9UK17); assay: In vitro ion channel function; format: cell-based; details: Ito/Kv4.3 IC50, Transient outward K^+ early repolarization
T1 sequence (Q9UK17 1-655): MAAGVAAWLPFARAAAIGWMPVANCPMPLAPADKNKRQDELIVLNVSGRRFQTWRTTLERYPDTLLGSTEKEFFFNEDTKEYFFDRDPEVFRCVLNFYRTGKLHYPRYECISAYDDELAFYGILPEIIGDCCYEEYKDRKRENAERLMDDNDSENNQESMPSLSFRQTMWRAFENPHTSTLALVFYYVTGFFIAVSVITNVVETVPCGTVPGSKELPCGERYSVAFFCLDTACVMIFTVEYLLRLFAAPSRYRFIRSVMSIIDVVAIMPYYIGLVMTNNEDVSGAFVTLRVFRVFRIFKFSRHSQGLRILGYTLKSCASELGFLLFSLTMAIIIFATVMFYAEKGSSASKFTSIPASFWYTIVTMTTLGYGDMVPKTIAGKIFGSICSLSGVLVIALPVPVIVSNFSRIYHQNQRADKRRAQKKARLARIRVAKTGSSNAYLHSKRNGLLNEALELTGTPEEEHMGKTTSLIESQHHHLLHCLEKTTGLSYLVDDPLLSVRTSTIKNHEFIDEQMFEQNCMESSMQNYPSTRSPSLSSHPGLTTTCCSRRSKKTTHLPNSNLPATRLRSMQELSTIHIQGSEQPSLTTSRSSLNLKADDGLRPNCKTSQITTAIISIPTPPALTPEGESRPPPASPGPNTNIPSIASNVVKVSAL
From the text: as §2

Kv1.5 = Kv1.5 (Homo sapiens, UniProt P22460); assay: In vitro ion channel function; format: cell-based; details: Ikr/Kv1.5 IC50, Rapidly activating K^+ delayed rectifier
From the text: as §2

hNav1.5 = hNav1.5 (Homo sapiens, UniProt Q14524); assay: In vitro ion channel function; format: cell-based; details: hNav1.5 IC50, Initiation of cardiac action potential/QRS interval
From the text: as §2

hERG = hERG (Homo sapiens, UniProt Q12809); assay: In vitro ion channel function; details: hERG IC50, K^+ rectifying current/QT interval
[1] = comparative haematology analysis in the rat, oral dosing; details: for AUC: in vivo, po
S. pneumoniae ATCC49619 = assay: MIC (CLSI broth microdilution); format: cell-based
N. gonorrhoeae ATCC49226 = assay: MIC (CLSI agar dilution); format: cell-based
[2] = system: N. gonorrhoeae ARC4676 (QR); format: cell-based
S. aureus ARC516 = assay: MIC (CLSI broth microdilution); format: cell-based
Dog pharmacokinetics = format: in vivo, Beagle dog; details: beagle, dog, plasma
Experimental: AZD0914 was analyzed in mouse, rat, dog, monkey plasma using a qualified method which was later validated for human plasma analysis. The validated human method is described below and is representative of the approach taken in other species. AZD0914 was determined in human plasma prepared with K2EDTA as an anticoagulant. AZD0914 and an internal standard (^13C2, ^15N2 AZD0914) were extracted from plasma with tert- butyl methyl ether. After evaporating to dryness under a stream of nitrogen, the residue was reconstituted and quantitated by reverse phase HPLC-MS/MS against a standard curve from 1.00 to 5000 ng/ml. Separation was achieved using a gradient which went from 55% to 85% methanol:acetonitrile (1:1) containing 0.2% formic acid as mobile phase B and 0.2% formic acid in water as mobile phase A at a flow rate of 0.60 ml/min through a Phenomonex Gemini C18 column (50 x 2.0 mm column, […]) heated using a Shimadzu CTO-20AC set to 40 °C. AZD0914 was detected in multiple reaction monitoring (MRM) mode by positive ion electrospray ionization using a Sciex API5500 (Toronto, Canada) mass spectrometer. The ion spray voltage was set to 5500 V and turboionspray temperature was 650 °C. AZD0914 was quantitated using the MRM transition 488.2 → 348.2 using a collision energy of 29 eV. The internal standard, (^13C2, ^15N2 AZD0914), was monitored using identical conditions except for the MRM transition of 492.2 → 348.2.

[3] = system: S. aureus AP607004 (MRQR); assay: MIC (CLSI broth microdilution); format: cell-based
[4] = Human plasma protein binding (PPB); details: plasma
[5] = system: S. pneumoniae ARC2205 (ERQR); assay: MIC (CLSI broth microdilution); format: cell-based
[6] = system: mammalian myeloid cell lines; assay: myeloid cytotoxicity (growth inhibition); format: cell-based; details: read-out: Myeloid IC50
Experimental: as §1

[7] = system: mammalian erythroid cell lines; assay: erythroid cytotoxicity (growth inhibition); format: cell-based; details: read-out: Erythroid IC50
Experimental: as §1

[8] = system: resistant isolates of S. aureus, S. pneumoniae and N. gonorrhoeae; format: cell-based; details: for susceptibility of spontaneous ETX0914 resistant mutants: S. aureus and N. gonorrhoeae GyrB mutants
[9] = Table 2, first entry of the cell (ciprofloxacin: 250 mg UID line)

SMILES: CO/N=C(\C(=O)N[C@@H]1C(=O)N2C(C(=O)O)=C(CSc3nc(=O)c(=O)[nH]n3C)CS[C@H]12)c1csc(N)n1 [Ceftriaxone, reference compound]
- MIC90 for S. aureus (Staphylococcus aureus): 8 µg/mL

SMILES: O=C(O)c1cn(C2CC2)c2cc(N3CCNCC3)c(F)cc2c1=O [Ciprofloxacin 2, Ciprofloxacin, reference compound]
- Micronucleus NOEL (mouse lymphoma cells; mouse): 200 µM
- MIC90, gonococcal infection (N. gonorrhoeae) (Neisseria gonorrhoeae; [9]): 0.06 to 0.12 µg/mL
- MIC90, gonococcal infection (N. gonorrhoeae) (Neisseria gonorrhoeae; second entry of the cell, 500 mg UID line): 0.25 to 0.5 µg/mL

SMILES: C[C@@H]1CN2c3c(cc4c(N5C(=O)OC[C@@H]5C)noc4c3F)CC3(C(=O)NC(=O)NC3=O)[C@H]2[C@H](C)O1 [Compound 1]
- IC50 (Iks/Kv7.1): > 316 µM
- IC50 (hCav1.2): > 100 µM
- IC50 (Ito/Kv4.3): > 292 µM
- IC50 (Kv1.5): > 100 µM
- IC50 (hNav1.5): > 316 µM
- IC50 (hERG): 232 µM

SMILES: C[C@@H]1CN2c3c(cc4c(-n5cncn5)noc4c3F)CC3(C(=O)NC(=O)NC3=O)[C@H]2[C@H](C)O1 [Compound 6]
- haematologic effects ([1]; 100 mg/kg/day for 14 days in the rat): decreases in reticulocytes, neutrophils, lymphocytes and monocytes
- AUC ([1]; rat, 100 mg/kg): 950 µM·h
- AUC ([1]; rat, 250 mg/kg): 1700 µM·h
- reticulocytes count ([1]; rat, 6 at the higher dose (250 mg/kg, 5 d), linezolid 6 d): significant suppression
- neutrophil count ([1]; rat, both doses of 6, linezolid): showing suppression
- lymphocyte counts ([1]; rat, higher dose of 6): leading to suppression
- white blood cell count ([1]; rat, higher dose of 6): leading to suppression
- MIC: S. pneumoniae ATCC49619 (S. pneumoniae ATCC49619): 0.125 µg/mL (≈ 0.274 µM)
- MIC: N. gonorrhoeae ATCC49226 (N. gonorrhoeae ATCC49226): 0.25 µg/mL (≈ 0.549 µM)
- MIC: N. gonorrhoeae ARC4676 (QR) [2]: 0.125 µg/mL (≈ 0.274 µM)
- MIC: S. aureus ARC516 (S. aureus ARC516): 0.031 µg/mL (≈ 0.0681 µM)
- IC50 (Iks/Kv7.1): > 333 µM
- IC50 (hCav1.2): > 100 µM
- IC50 (Ito/Kv4.3): 224 µM
- IC50 (hNav1.5): > 333 µM
- Dog F (Dog pharmacokinetics): 99%
- clearance (Dog pharmacokinetics): 4.5 mL/min/kg
- Micronucleus NOEL (mouse lymphoma cells; in vitro): 3 µM
- MIC: S. aureus AP607004 (MRQR) [3]: 0.063 µg/mL (≈ 0.138 µM)
- solubility (physchem): 73 µM (≈ 33.2 µg/mL)
- IC50 (hERG): 237 µM
- fraction unbound [4]: 0.13
- MIC: S. pneumoniae ARC2205 (ERQR) [5]: 0.125 µg/mL (≈ 0.274 µM)

SMILES: Cc1nnc(-c2noc3c(F)c4c(cc23)CC2(C(=O)NC(=O)NC2=O)[C@H]2[C@H](C)O[C@H](C)CN42)o1 [Compound 8]
- MIC: S. pneumoniae ATCC49619 (S. pneumoniae ATCC49619): 0.125 µg/mL (≈ 0.266 µM)
- MIC: N. gonorrhoeae ATCC49226 (N. gonorrhoeae ATCC49226): 1 µg/mL (≈ 2.13 µM)
- IC50 [6]: 76 µM
- MIC: N. gonorrhoeae ARC4676 (QR) [2]: 1 µg/mL (≈ 2.13 µM)
- MIC: S. aureus ARC516 (S. aureus ARC516): 0.25 µg/mL (≈ 0.531 µM)
- Dog F (Dog pharmacokinetics): 32%
- clearance (Dog pharmacokinetics): 4.7 mL/min/kg
- Micronucleus NOEL (mouse lymphoma cells; in vitro): > 200 µM
- MIC: S. aureus AP607004 (MRQR) [3]: 0.25 µg/mL (≈ 0.531 µM)
- solubility (physchem): 1350 µM (≈ 635 µg/mL)
- IC50 [7]: > 100 µM
- fraction unbound [4]: 0.13
- MIC: S. pneumoniae ARC2205 (ERQR) [5]: 0.25 µg/mL (≈ 0.531 µM)

SMILES: CO/N=C1\CN(c2nc3c(cc2F)c(=O)c(C(=O)O)cn3C2CC2)CC1CN (centres unmarked) [Gemifloxacin, reference compound]
- IC50 [6]: 10 µM
- concentration giving a measurable genotoxicity signal in the in vitro MMA (mouse lymphoma cells): 6 µM
- Micronucleus NOEL (mouse lymphoma cells; in vitro): 3 µM
- IC50 [7]: 7 µM

SMILES: C[C@H]1COc2c(N3CCN(C)CC3)c(F)cc3c(=O)c(C(=O)O)cn1c23 [Levofloxacin, reference compound]
- MIC: S. pneumoniae ATCC49619 (S. pneumoniae ATCC49619): 0.5 µg/mL (≈ 1.38 µM)
- IC50 [6]: 79 µM
- MIC: S. aureus ARC516 (S. aureus ARC516): 0.25 µg/mL (≈ 0.692 µM)
- MIC: S. aureus AP607004 (MRQR) [3]: 8 µg/mL (≈ 22.1 µM)
- IC50 [7]: 88 µM
- MIC: S. pneumoniae ARC2205 (ERQR) [5]: 16 µg/mL (≈ 44.3 µM)

SMILES: N#Cc1ccc2ccc(=O)n(CCN3CC[C@H](NCc4cc5c(cn4)OCCO5)[C@H](F)C3)c2c1 [NBTI 3, 1-[2-[(3R,4S)-4-(2,3-Dihydro-[1,4]dioxino[2,3-c]pyridin-7-ylmethylamino)-3-fluoro-1-piperidyl]ethyl]-2-oxo-quinoline-7-carbonitrile]
- susceptibility of fluoroquinolone resistant isolate ARC4680 ([8]; N. gonorrhoeae ARC4680): reduced susceptibility
- susceptibility of spontaneous ETX0914 resistant mutants [8]: fully susceptible

SMILES: CO[C@@H]1[C@@H](OC(N)=O)[C@@H](O)[C@H](Oc2ccc3c(O)c(NC(=O)c4ccc(O)c(CC=C(C)C)c4)c(=O)oc3c2C)OC1(C)C [Novobiocin 4, Novobiocin]
- susceptibility of fluoroquinolone resistant clinical isolates ([8]; S. aureus ARC2381, S. pneumoniae ARC2480, N. gonorrhoeae ARC4672, ARC4680, ARC4676): fully susceptible
- susceptibility of spontaneous ETX0914 resistant mutants [8]: fully susceptible

SMILES: CC1COc2c(N3CCN(C)CC3)c(F)cc3c(=O)c(C(=O)O)cn1c23 (centres unmarked) [Ofloxacin, reference compound]
- MIC90, skin infection (S. aureus) (Staphylococcus aureus; Table 2): 2 µg/mL (≈ 5.53 µM)
- MIC90, gonococcal infection (N. gonorrhoeae) (Neisseria gonorrhoeae; [9]): 0.25 to 0.5 µg/mL
